Test results reported in PubChem BioAssay AID1902 (Broad Institute, 2009).
pEC50: −log10 of the molar value. Activity calls are given as the source filed them.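 How the source made its calls: active means EC50 no more than a set limit of log units above the highest dose; inactive means the rest.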

What follows are compounds tested against S. pyogenes SKKanGAS, kanamycin survival, BacTiterGlo, 6 h (assay: SKKanGAS survival reduction under kanamycin, dose response, streptokinase promoter inhibitor project, SKKanGAS strain, luminescence, dose confirmation (AID 1902);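 further: lower survival reflects blocked streptokinase promoter driving kanamycin resistance gene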).

Point of comparison: `COc1ccc(C(=O)NC(=S)NNC(=O)c2c(-c3ccccc3)noc2C)cc1OC`, pEC50 6.30. Against it:
- O=C1c2[nH]nc(-c3ccccc3O)c2C(c2cccc(Cl)c2)N1Cc1ccco1 (centres undefined) — 1.17 log units lower, 5.13
- COc1cc2ccccc2cc1C(=O)Nc1ccc(NC(=O)c2cccs2)cc1 — 1.08 log units lower, 5.22
- CC(=O)Oc1ccc(-c2nc(-c3cccnc3)no2)cc1 — 0.99 log units lower, 5.31
- C[C@H]1COc2c(N3CCN(C)CC3)c(F)cc3c(=O)c(C(=O)O)cn1c23 — 0.49 log units lower, 5.81
- c1ccc(-c2csc3ncnc(N4CCc5ccccc5C4)c23)cc1 — 1.15 log units lower, 5.15
- O=C(/C=C/c1ccccc1)NC(NC(=S)Nc1cccc(Cl)c1)C(Cl)(Cl)Cl (centres undefined) — 0.57 log units lower, 5.73
- CC[C@H]1OC(=O)[C@H](C)[C@@H](O[C@H]2C[C@@](C)(OC)[C@@H](O)[C@H](C)O2)[C@H](C)[C@@H](O[C@@H]2O[C@H](C)C[C@H](N(C)C)[C@H]2O)[C@](C)(OC)C[C@@H](C)C(=O)[C@H](C)[C@@H](O)[C@]1(C)O — higher, > 7.22
- Cc1ccc(-c2nc3cc(NS(=O)(=O)c4ccc(C)cc4)ccc3o2)cc1 — 1.10 log units lower, 5.20
- Cc1cc(NC(=O)c2ccc(C)s2)n(-c2nc3ccccc3[nH]2)n1 — 0.84 log units lower, 5.46
- O=[N+]([O-])c1cc(S(=O)(=O)Nc2cccc(Cl)c2)ccc1N=Nc1c(O)[nH]c2ccccc12 — 0.86 log units lower, 5.44
- COc1ccc(C#Cc2ccc3c(=O)c4ccccc4n(C)c3c2)cc1 — 1.44 log units lower, 4.86
- O=C(CN(C(=O)Cn1nnc(-c2ccccc2F)n1)c1cccc2c1CCCC2)NCc1ccccc1 — 1.03 log units lower, 5.27
- Cc1cc(C)n(-c2nc(NCCCO)c3c4c(sc3n2)CCCC4)n1 — 0.64 log units lower, 5.66
- CCCCC(=O)NC(c1ccco1)c1cc(Cl)c2cccnc2c1O (centres undefined) — 0.61 log units lower, 5.69
- CC(C)(C)C1CCC2(CC1)C(C#N)=C(SCC(=O)Nc1ccccc1)NC(=O)C2C#N (centres undefined) — 0.93 log units lower, 5.37
- CC(C)(C)C(=O)NC(=S)NNC(=O)c1ccc(Cl)cc1Cl — within 0.2 log units, 6.40
- CC(C)(C)OC(=O)[C@H](Cc1ccccc1)NC(=O)c1[nH]cnc1C(=O)Nc1cccc(Cl)c1 — 0.68 log units lower, 5.62
- O=C1C(=O)c2ccccc2-c2ccccc21 — 0.40 log units lower, 5.90
- CC1CCN(c2nc3ccccc3nc2C(C#N)C(=O)NC2CCCCC2)CC1 (centres undefined) — 0.58 log units lower, 5.72
- CC1(c2ccccc2)CC(C)(C)N2C(=O)/C(=C3\SC(=S)NC3=O)c3cccc1c32 (centres undefined) — within 0.2 log units, 6.37
- Fc1ccc(CSc2nc3ccccc3[nH]2)c2ccccc12 — 1.09 log units lower, 5.21
- Nc1cc(-c2ccc(OC(F)(F)F)cc2)nn1-c1ccc(Cl)c(Cl)c1 — 1.09 log units lower, 5.21
- CCOC(=O)[C@@H]1[C@H]2COc3ccccc3[C@H]2N2C(=O)N(c3ccc(C(F)(F)F)cc3)C(=O)[C@]12C — 1.08 log units lower, 5.22
- COc1ccc(/C=N/n2c(-c3cccs3)n[nH]c2=S)cc1 — 1.46 log units lower, 4.84
- CC(C)C(=O)NC(c1ccco1)c1ccc2cccnc2c1O (centres undefined) — 0.69 log units lower, 5.61
- COc1cccc(-c2coc3cc4oc(=O)c(CCC(=O)O)c(C)c4cc23)c1 — 1.01 log units lower, 5.29
- Cc1cccc(/C=c2\s/c(=C\C(=O)C(C)(C)C)[nH]c2=O)c1 — 0.67 log units lower, 5.63
- Cc1nn2c(COc3ccc(NC(=O)c4ccccc4)cc3)nnc2c2ccccc12 — within 0.2 log units, 6.22
- C=CCn1c(Oc2ccc(C(=O)OC)cc2)nc2c1c(=O)n(C)c(=O)n2C — 1.20 log units lower, 5.10
- CC1CCN(c2nc(CN3CCCCC3)nc3scc(-c4ccccc4)c23)CC1 — 0.78 log units lower, 5.52
- c1ccc(CCNc2nc(-c3ccccn3)cs2)cc1 — 0.87 log units lower, 5.43
- O=S(=O)(Nc1cccc2c1CCCC2)c1ccc(Cl)cc1 — 0.77 log units lower, 5.53
- CCCc1ccc(-c2cc(C(=O)N/N=C/c3ccc([N+](=O)[O-])o3)c3ccccc3n2)cc1 — 0.54 log units lower, 5.76
- O=C(CCC(=O)Nc1ccc(Br)cc1)N/N=C/c1ccccc1O — 1.01 log units lower, 5.29
- c1ccc(-c2nnc(-c3c[nH]c4ccccc34)nc2-c2ccccc2)cc1 — 1.16 log units lower, 5.14
- COc1ccc(/C=c2\s/c(=C/C(=O)c3ccc(C)cc3)[nH]c2=O)cc1OC — 1.27 log units lower, 5.03
- Cc1cc(NC(=O)c2sccc2C)n(-c2nc3ccccc3[nH]2)n1 — 0.75 log units lower, 5.55
- CC1CCN(c2ccccc2NC(=O)c2ccc(Br)o2)CC1 — 1.02 log units lower, 5.28
- c1ccc(OCc2nc3c4c(ncn3n2)-c2ccccc2CC42CCCC2)cc1 — 1.37 log units lower, 4.93
- O=C(OCc1csc(Nc2ccccc2)n1)c1ccc(Cl)cc1 — 1.46 log units lower, 4.84
- CCc1nnc(NS(=O)(=O)c2ccc(NC(=S)NC(=O)/C=C/c3ccc(C(C)C)cc3)cc2)s1 — 0.79 log units lower, 5.51
- Cc1sc2cc3c(c(C(=O)c4ccccc4)[n+]2c1C)-c1cccc2cccc-3c12 — 1.12 log units lower, 5.18
- COc1cc(/C=N/Nc2nc(Nc3ccc(C)cc3)nc(-n3nc(C)cc3C)n2)cc(OC)c1OC — 0.47 log units higher, 6.77
- COc1ccc(NC(=O)c2ccc3c(c2)NC(=O)CS3)cc1S(=O)(=O)Nc1ccc(Br)cc1 — 0.83 log units lower, 5.47
- CC(C)C1Nc2c(O)cc(Cl)c([N+](=O)[O-])c2C2C=CCC21 (centres undefined) — 0.79 log units lower, 5.51
- Cc1ccc(NC(=O)c2nc[nH]c2C(=O)N[C@@H](CCCCNC(=O)OC(C)(C)C)C(=O)OC(C)(C)C)cc1 — 0.87 log units lower, 5.43
- COCc1cc(Sc2c(Cl)cccc2Cl)nc(-c2ccccc2)n1 — 1.32 log units lower, 4.98
- COc1ccc(-c2nnc(NC(=O)c3ccc(S(=O)(=O)N4CCCc5ccccc54)cc3)o2)cc1 — 0.53 log units higher, 6.83
- COc1ccc2nc(N3C(=O)CNC3=S)sc2c1 — 0.76 log units lower, 5.54
- Cc1ccc2sc(NNC(=O)c3ccc4c(c3)OCCO4)nc2c1C — 0.88 log units lower, 5.42
- COc1ccc(Br)cc1[C@H]1[C@@H]2C=CCC[C@@]2(C)C(=O)N1Cc1ccccc1 — 0.99 log units lower, 5.31
- CNc1ccc2oc(C[C@H]3O[C@@]4(CC[C@H]3C)O[C@H]([C@H](C)C(=O)c3ccc[nH]3)[C@H](C)C[C@H]4C)nc2c1C(=O)O — higher, > 7.22
- Cc1nn(-c2ccccc2)c(Cl)c1/C=C1\SC(=S)N(CCCCCC(=O)O)C1=O — 0.78 log units lower, 5.52
- O=C(Nc1nnc(-c2ccc(Br)cc2)o1)c1ccco1 — 0.38 log units lower, 5.92
- Cc1ccc2c(c1)=C(c1sc(N(C)c3ccc(O)cc3)nc1O)C(=O)N=2 — 1.13 log units lower, 5.17
- Cc1cc(C(=O)OC(C(=O)Nc2cccc(C(F)(F)F)c2)c2ccccc2)c(C)o1 (centres undefined) — 1.30 log units lower, 5.00
- CC(C)(C)c1cc(Cl)c(O)c(NC(=S)NC(=O)c2cccnc2)c1 — within 0.2 log units, 6.46
- O=C(c1cc(-c2cccs2)nc2ccccc12)N1CCN(c2ccccc2O)CC1 — 1.43 log units lower, 4.87
- Cc1ccc(-c2nn(-c3ccccc3)cc2/C=N/O)cc1 — 1.10 log units lower, 5.20
- O=C(N/N=C/c1sc2ccccc2c1O)c1ccccc1 — 0.27 log units lower, 6.03
- CCn1cc(C(=O)O)c(=O)c2cc(F)c(N3CCN(S(=O)(=O)c4ccc5c(c4)OCCO5)CC3)cc21 — 0.76 log units lower, 5.54
- O=[N+]([O-])c1ccc(/C=N/Nc2nc(-c3ccccc3)c3cc(Br)ccc3n2)o1 — within 0.2 log units, 6.33
- COc1cccc(OC)c1C(=O)Nc1cc(C)nn1-c1nc2ccccc2[nH]1 — 1.10 log units lower, 5.20
- CCCCCCCCCCCCN1[C@@H](CC(=O)O)c2cc(C(F)(F)F)ccc2S1(=O)=O — 0.69 log units lower, 5.61
- CC(=O)N(C1=C(Cl)C(=O)c2ccccc2C1=O)C1CCCCC1 — 1.27 log units lower, 5.03
- Clc1ccc(COn2c(-c3ccc(Cl)cc3)nc3ccccc32)cc1 — 1.09 log units lower, 5.21
- CCOc1ccc2nc(NC(=O)c3ccccn3)sc2c1 — 0.55 log units lower, 5.75
- CSc1ccc(/C=C2\CCn3c2nc2cc(C(=O)O)ccc2c3=O)cc1 — 1.09 log units lower, 5.21
- Cc1cc2oc(=O)cc(CNc3ccccc3F)c2cc1O — 1.31 log units lower, 4.99

For `COc1ccc(OC)c(N=Cc2c(O)n(Cc3ccccc3)c(=S)[nH]c2=O)c1`, the EC50 was > 15 µM (inactive).
With `CC(=O)N1CCc2cc(S(=O)(=O)N3CCc4ccccc43)ccc21` the EC50 was > 15 µM (inactive).
For `CCCC(=O)Nc1ccc2c(c1)nc(CCNC(=O)c1ccccc1)n2C`, the EC50 was > 15 µM (inactive).
For `COc1ccccc1N1CCN(C(=O)/C=C/c2ccc(C)cc2)CC1`, the EC50 was > 15 µM (inactive).
